PMC5458179, “Oxidative DNA double strand breaks and autophagy in the antitumor effect of sterically hindered platinum(II) complexes in NSCLCs” (Oncotarget, 2017)

Tests used:
HCT-116 = experiment: MTT cytotoxicity assay; type: cell-based, human; details: 48 h drug exposure
Protocol: (§1) The results reveal that the steric hindrance plays a significant role in the cytotoxicity of complex 3.
(§2) Human cancer cell lines HepG2, SGC-7901, HCT-116, A549, NCI-H1299 and MCF-7 as well as normal liver cell line L02 were purchased from the Cell Bank of Shanghai Institute of Cell Biology. Among them, MCF-7, HepG2 cells were cultured at 37 °C in 5% CO2 with DMEM supplemented with 10% fetal bovine serum (FBS) (Hyclone, Lifescience, USA) and 1% penicillin/streptomycin (Beyotime, Nantong, China), while HCT-116, SGC-7901, A549, NCI-H1299 and L02 cells were cultured at 37 °C in 5% CO2 with RPMI-1640 supplemented with 10% FBS and 1% penicillin/streptomycin. Cells were passed every 2 days and restarted from frozen stocks upon reaching pass number 20.
(§3) In vitro cytotoxicity of the platinum compounds against human hepatocellular carcinoma (HepG-2), gastric carcinoma (SGC-7901), non-small-cell lung cancer (A549), and colorectal cancer (HCT-116) cell lines were measured by the MTT assays. Briefly, the cells were seeded in 96-well cultured plates at a density of 5000 cells/well. After overnight incubation (16 h), the cells were treated with the platinum complexes. After 48 h of incubation, 10 μL of a freshly diluted 3-(4,5-dimethyl-2-thiazolyl)-2,5-diphenyl-2H-tetrazolium bromide (MTT) solution (5 mg/mL) were added to each well and the plates were incubated at 37 °C in a humidified 5% CO2 atmosphere for 4 h. At the end of the incubation period the medium was removed and the formazan product was dissolved in 150 μL of DMSO. The cell viability was evaluated by measurement of the absorbance at 490 nm, using an Absorbance Reader (BioRad). IC50 values (compound concentration that produces 50% of cell growth inhibition) were calculated from curves constructed by plotting cell survival inhibitory rate (%) versus drug concentration logarithm. All experiments were repeated in three times. The reading values were converted to the percentage of control (% cell survival). Cytotoxic effects were expressed as IC50 values.

HepG2 = experiment: MTT cytotoxicity assay; type: cell-based, human; details: 48 h drug exposure
Protocol: as §1, §2, §3

SGC-7901 = experiment: MTT cytotoxicity assay; type: cell-based, human; details: 48 h drug exposure
Protocol: as §1, §2, §3

A549 = experiment: MTT cytotoxicity assay; type: cell-based, human; details: 48 h drug exposure
Protocol: as §1
(§4) The effects of complex 3 on the viability of NSCLC cancer cells including A549 and NCI-H1299 were detected respectively via MTT assays at time points of 12, 24, 48 and 72 h (Figure 2A). The results shown that complex 3 could inhibit the viability of the NSCLC cells.
as §2, §3

NCI-H1299 = experiment: MTT cytotoxicity assay; type: cell-based, human; details: 48 h drug exposure, read-out: IC50 NCI-H1299
Protocol: as §1, §4, §2, §3

[1] = system: L02 normal liver cell line; experiment: MTT cytotoxicity assay; type: cell-based; details: 48 h drug exposure
Protocol: as §1, §2, §3

MCF-7 = experiment: MTT cytotoxicity assay; type: cell-based, human; details: exposed for 48 h
Protocol: as §2
In vitro cytotoxicity of the platinum compounds against human hepatocellular carcinoma (HepG-2), gastric carcinoma (SGC-7901), non-small-cell lung cancer (A549), and colorectal cancer (HCT-116) cell lines were measured by the MTT assays. Briefly, the cells were seeded in 96-well cultured plates at a density of 5000 cells/well. After overnight incubation (16 h), the cells were treated with the platinum complexes. […] The cell viability was evaluated by measurement of the absorbance at 490 nm, using an Absorbance Reader (BioRad). […] The reading values were converted to the percentage of control (% cell survival). Cytotoxic effects were expressed as IC50 values.

A549 cells [2] = experiment: Annexin V-FITC/PI apoptosis assay (flow cytometry); type: cell-based, human; details: A549, 50 μM for 24 h (figure legend and method: 10 μM)
Protocol: (§5) Apoptosis is a crucial programmed death form of aging or damaged cells. […] To further explore the impact of complex 3 on long-term clonogenic survival, colony formation assay was performed.
(§6) Annexin V-FITC apoptosis detection kit (Keygen, Jiangsu, China) assay was performed according to the manufacturer's protocol. […] Then the cells were collected, resuspended in binding buffer (pH 7.5, 10 mM HEPES, 2.5 mM CaCl2 and 140 mM NaCl), incubated with Annexin V-FITC and then PI for 10 min in the dark at room temperature, the processed cells were analyzed by flow cytometry (FACSCalibur, Becton Dickinson) and a computer station running Cell-Quest software. (BD Biosciences, Franklin Lakes, NJ).

NCI-H1299 cells = experiment: Annexin V-FITC/PI apoptosis assay (flow cytometry); type: cell-based, human; details: NCI-H1299, 50 μM for 24 h (figure legend and method: 10 μM)
Protocol: as §5, §6

p-Akt = experiment: Western blot of PI3K/Akt/mTOR pathway; type: cell-based, human; details: A549, 10 μM, 24 h, relative to control
Source text: (§7) The mammalian target of rapamycin (mTOR) kinase is used to regulate autophagy as controlled though oxidative stress, hypoxia and growth receptors. The phosphatidylinosital-3 kinase (PI3K)/Akt signaling pathway activates mTOR through phosphorylating and inactivating the tuberous sclerosis complex (TSC)1–TSC2 complex. Inhibition of mTOR results in activation of autophagy. […] At the same time, levels of the p-Akt protein decreased to 0.95-, 1.02-, and 0.39-folds, respectively (Figure 7B). […] As a results, the administration of complex 3 decreased levels of proteins in PI3K/Akt/mTOR signaling pathways.
(§8) Lysates were centrifuged at 12,000 g for 0.5 h at 4°C. The concentrations of total proteins were measured using the BCA assay method with Varioskan spectrofluorometer and spectrophotometer (Thermo, Waltham, MA) at 562 nm. Protein (20–100 μg) prepared from the indicated cells was loaded per lane and electrophoresed in 8% or 10% sodium dodecyl sulfate polyacrylamide gel electrophoresis (SDS-PAGE), and then transferred onto polyvinylidene difluoride (PVDF) Immobilon-P membrane (Bio-Rad, USA) using a transblot apparatus (Bio-Rad, USA). The membranes were blocked with 5% (w/v) non-fat milk at 0.5 h at 37°C, followed by overnight incubation at 4°C with primary antibodies diluted in PBST. After washing with PBST, the membranes were incubated for 1 h with an IRDye´800 conjugated secondary antibody diluted 1:20000 in PBST, and the labeled proteins were detected with an Odyssey Scanning System (Li-COR., Lincoln, Nebraska, USA).

p-mTOR = experiment: Western blot of PI3K/Akt/mTOR pathway; type: cell-based, human; details: A549, 10 μM, 24 h, relative to control
Source text: as §7, §8

A549 cells [3] = experiment: Autophagy by acridine orange flow cytometry (AVOs); type: cell-based, human; details: A549, NAC pretreatment
Protocol: (§9) The role of complex 3-induced autophagy in cell death was further analyzed (Figure 6). When A549 cancer cells were treated with complex 3 of 10 μM, the protein expression of LC3-II was increased (Figure 6A). […] Treatment with complex 3 for 24 h caused a 4.5-folds increase in cells undergoing autophagy (Figure 6C). […] Moreover, Bax and Bcl-2 expressions were measured by western blot analysis of whole cell lysates.
(§10) To investigate the role of ROS in complex 3-induced cell death, the level of intracellular H2O2 was measured. […] Exposure of A549 cells to NAC reduced levels of LC3-II from 2.3- to 1.5-folds (Figure 8B). […] In parallel, the complex 3-induced increase ratio of Bax/Bcl-2 was suppressed by NAC (Figure 8E).
Flow cytometry with acridine orange staining as described in a previous study was used to detect and quantify the AVOs, one of the characteristicsof autophagy. At the end of individual experiments, A549 cells were collected in phenol red-free RPMI 1640 medium. Green (FL-1) and red (FL-3) fluorescences of acridine orange were measured using a flow cytometer and CellQuest software (Becton Dickinson, San Jose, CA). The sum of the upper-left and upper-right quadrants of the cytogram was used to estimate the percentage of cells undergoing autophagy.

A549 cells [4] = experiment: Quantification of apoptotic cells (annexin V/PI flow cytometry); type: cell-based, human; details: A549, NAC pretreatment
Protocol: as §9, §10
The mode of cell death was analyzed by flow cytometry with annexin V/propidium iodide (PI) double-staining to detect membrane events according to a previous study. After individual treatments, whole cells were collected in 4-(2-hydroxyethyl)-1-piperazineethanesulfonic acid (HEPES) buffer containing 10 mM HEPES (pH 7.4), 140 mM NaCl, and 2.5 mM CaCl2. Cells were subsequently stained with annexin V (2.5 μg/ml) and PI (2 ng/ml) for 20 min, followed by analysis by flow cytometry (Beckman Coulter). Cystograms of the four quadrants in the figure were used to distinguish normal (annexin V^−/PI^−), early apoptotic (annexin V^+/PI^−), late apoptotic(annexin V^+/PI^+), and necrotic cells (annexin V^−/PI^+). The sum of early apoptosis and late apoptosis is presented as total apoptosis.

pET28a plasmid DNA = experiment: Agarose gel electrophoresis of plasmid DNA; details: 0, 20, 80, 320, 640 μM
Protocol: The tested complexes were incubated with DNA at different concentrations.
Appropriate dilutions of tested complexes were made, and the required volumes of solutions were added to achieve a set of concentrations in the range of 0–100 mm; pET22b DNA (5 mL, 0.20 mg) was added to each tube, and the mixtures of platinum complexes and pET22b plasmid DNA were then incubated at 37°C for 6 or 24 h. Afterward, the agarose gel (made up to 1% w/v) containing ethidium bromide was prepared with TA buffer (50 mm Tris-acetate, pH 7.5). The mixtures with loading buffer (1 mL) underwent electrophores is in agarose gel in TA buffer at 100 V for 60 min. Bands were imaged using a Molecular Imager (Bio-Rad, USA) under UV light.

Row | SMILES | IC50 (HCT-116) [µM] | IC50 (HepG2) [µM] | IC50 (SGC-7901) [µM] | IC50 (A549) [µM] | IC50 (NCI-H1299) [µM] | IC50 [1] [µM] | IC50 (MCF-7) [µM] | early and median apoptotic cells (A549 cells [2]) [%] | early and median apoptotic cells (NCI-H1299 cells) [%] | late apoptotic cells (NCI-H1299 cells) [%] | levels of the p-Akt protein (p-Akt) [folds] | amounts of p-mTOR (p-mTOR) [folds] | effect of NAC pretreatment on percentage of autophagy (A549 cells [3]) | effect of NAC pretreatment on percentage of apoptosis (A549 cells [4]) | gel electrophoretic mobility of plasmid DNA (pET28a plasmid DNA)
1 | CC(C)C[NH+]1[C@@H]2CCCC[C@H]2[NH+](CC(C)C)[Pt-2]1([Cl])[Cl] (stereo partly shown) [Complex 1] | 70.5 ± 5.56 | 34.1 ± 2.55 | 44.6 ± 3.24 | > 100 | > 100 | 148 ± 10.6 | – | – | – | – | – | – | – | – | –
2 | CC(C)C[NH+]1[C@@H]2CCCC[C@H]2[NH+](CC(C)C)[Pt-2]12[O]C(=O)C(=O)[O]2 (stereo partly shown) [Complex 2] | 37 ± 2.76 | > 100 | > 100 | 28.4 ± 1.45 | > 100 | > 100 | – | – | – | – | – | – | – | – | –
3 | CC(C)CN[C@@H]1CCCC[C@H]1N.O=C([O-])CC(=O)[O-].[Pt+2] [Complex 3a, [(1R,2R)-N^1-(2-methylpropyl)-1,2-cyclohexanediamine-N,N’](malonato-O,O’), reference compound] | 65.8 ± 4.95 | > 100 | – | 77.5 ± 5.04 | 94.9 ± 6.74 | – | > 100 | 12.37 | 4.58 | 4.12 | 0.39 | 0.69 | no decreased percentage of autophagy | no decreased percentage | no migration was observed
4 | CC(C)C[NH+]1[C@@H]2CCCC[C@H]2[NH+](CC(C)C)[Pt-2]12[O]C(=O)C1(CCC1)C(=O)[O]2 (stereo partly shown) [Complex 4] | > 100 | > 100 | > 100 | > 100 | > 100 | > 100 | – | – | – | – | – | – | – | – | –
